Measured values: patent US8247211B2, “Glycopeptide antibiotics” (American Cyanamid Company, priority 2001, dated 2012)
Values after ≈ are worked out from the molar mass of the structure shown.

What was measured:
Test in all cases: In vitro antibacterial evaluation: minimum inhibitory concentration (MIC), broth dilution method
Format in all cases: cell-based
Staphylococcus sp. = conditions: 18 hours at 35° C.
Summary of the method: (§1)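 Following NCCLS approved standard M7-A2, compounds are serially diluted from 64 to 0.06 μg/mL in Muller-Hinton II […] and inoculated at 5×10^5 CFU/mL; the MIC is the minimum concentration at which growth is inhibited.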

Enterococcus sp. = system: Enterococcus sp.
Summary of the method: as §1

Escherichia coli [1] = system: Escherichia coli
Summary of the method: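 NCCLS M7-A2 broth dilution with Mueller-Hinton II, testing 64-0.06 μg/mL antibiotic against 5×10^5 CFU/mL inocula. Test strains include recent methicillin-, penicillin- or vancomycin-resistant clinical isolates. MIC is the lowest concentration preventing growth.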

Escherichia coli [2] = system: Escherichia coli; remark: listed apart in the source

Compound: CC(C)CC(=O)OC1C(O)C(CO)OC(OC2C(CO)OC(Oc3ccc(CC4NC(=O)C(C(C)c5cccs5)NC(=O)CNC(=O)C(CO)NC(=O)C(C(O)C5CNC(=N)N5C5OC(CO)C(O)C(O)C5O)NC(=O)C(C(O)C5CNC(=N)N5)NC4=O)cc3)C(O)C2O)C1O (stereo not drawn) [Example 265b]
- MIC Coagulase Negative Staphylococcus (GC 4547) (Staphylococcus sp.): 8 µg/mL (≈ 5.77 µM)
- MIC Coagulase Negative Staphylococcus (GC 4547) (Staphylococcus sp.; broth dilution): 8 µg/mL (≈ 5.77 µM)
- MIC Coagulase Negative Staphylococcus (GC 4548) (Staphylococcus sp.): 4 µg/mL (≈ 2.89 µM)
- MIC Coagulase Negative Staphylococcus (GC 4548) (Staphylococcus sp.; broth dilution): 4 µg/mL (≈ 2.89 µM)
- MIC Coagulase Negative Staphylococcus (GC 4549) (Staphylococcus sp.): 4 µg/mL (≈ 2.89 µM)
- MIC Coagulase Negative Staphylococcus (GC 4549) (Staphylococcus sp.; broth dilution): 4 µg/mL (≈ 2.89 µM)
- MIC Coagulase Negative Staphylococcus (GC 4551) (Staphylococcus sp.): 8 µg/mL (≈ 5.77 µM)
- MIC Coagulase Negative Staphylococcus (GC 4551) (Staphylococcus sp.; broth dilution): 8 µg/mL (≈ 5.77 µM)
- MIC Staphylococcus aureus (ATCC 29213) (Staphylococcus sp.): 16 µg/mL (≈ 11.5 µM)
- MIC Staphylococcus aureus (ATCC 29213) (Staphylococcus sp.; broth dilution): 16 µg/mL (≈ 11.5 µM)
- MIC Staphylococcus aureus (GC 1131) (Staphylococcus sp.): 32 µg/mL (≈ 23.1 µM)
- MIC Staphylococcus aureus (GC 1131) (Staphylococcus sp.; broth dilution): 32 µg/mL (≈ 23.1 µM)
- MIC Staphylococcus aureus (GC 4541) (Staphylococcus sp.): 8 µg/mL (≈ 5.77 µM)
- MIC Staphylococcus aureus (GC 4541) (Staphylococcus sp.; broth dilution): 8 µg/mL (≈ 5.77 µM)
- MIC Staphylococcus aureus (GC 4542) (Staphylococcus sp.): 8 µg/mL (≈ 5.77 µM)
- MIC Staphylococcus aureus (GC 4542) (Staphylococcus sp.; broth dilution): 8 µg/mL (≈ 5.77 µM)
- MIC Staphylococcus aureus (GC 4544) (Staphylococcus sp.): 8 µg/mL (≈ 5.77 µM)
- MIC Staphylococcus aureus (GC 4544) (Staphylococcus sp.; broth dilution): 8 µg/mL (≈ 5.77 µM)
- MIC Staphylococcus aureus (GC 4545) (Staphylococcus sp.): 8 µg/mL (≈ 5.77 µM)
- MIC Staphylococcus aureus (GC 4545) (Staphylococcus sp.; broth dilution): 8 µg/mL (≈ 5.77 µM)
- MIC Staphylococcus aureus-SMITH (GC 4543) (Staphylococcus sp.): 8 µg/mL (≈ 5.77 µM)
- MIC Staphylococcus aureus-SMITH (GC 4543) (Staphylococcus sp.; broth dilution): 8 µg/mL (≈ 5.77 µM)
- MIC Staphylococcus haemolyticus (GC 4546) (Staphylococcus sp.): 8 µg/mL (≈ 5.77 µM)
- MIC Staphylococcus haemolyticus (GC 4546) (Staphylococcus sp.; broth dilution): 8 µg/mL (≈ 5.77 µM)
- MIC Enterococcus avium (GC 4558) (Enterococcus sp.; Enterococcus avium (GC 4558)): 64 µg/mL (≈ 46.2 µM)
- MIC Enterococcus faecalis (ATCC 29212) (Enterococcus sp.; Enterococcus faecalis (ATCC 29212)): 64 µg/mL (≈ 46.2 µM)
- MIC Enterococcus faecalis (GC 4553) (Enterococcus sp.; Enterococcus faecalis (GC 4553)): 64 µg/mL (≈ 46.2 µM)
- MIC Enterococcus faecalis (GC 4554) (Enterococcus sp.; Enterococcus faecalis (GC 4554)): >64 µg/mL
- MIC Enterococcus faecium (GC 2243) (Enterococcus sp.; Enterococcus faecium (GC 2243)): 64 µg/mL (≈ 46.2 µM)
- MIC Enterococcus faecium (GC 4556) (Enterococcus sp.; Enterococcus faecium (GC 4556)): 64 µg/mL (≈ 46.2 µM)
- MIC Enterococcus faecium (GC 4557) (Enterococcus sp.; Enterococcus faecium (GC 4557)): 8 µg/mL (≈ 5.77 µM)
- MIC Enterococcus faecalis (GC 2242) (Enterococcus sp.; broth dilution, 18 hours at 35° C., strain GC 2242): 4 µg/mL (≈ 2.89 µM)
- MIC Enterococcus faecalis (GC 2691) (Enterococcus sp.; broth dilution, 18 hours at 35° C., strain GC 2691): 64 µg/mL (≈ 46.2 µM)
- MIC Escherichia coli (GC 4559) (Escherichia coli [1]; Escherichia coli (GC 4559)): 64 µg/mL (≈ 46.2 µM)
- MIC Escherichia coli (GC 4560) (Escherichia coli [1]; Escherichia coli (GC 4560)): 4 µg/mL (≈ 2.89 µM)
- MIC Escherichia coli (ATCC 25922) (Escherichia coli [2]): >64 µg/mL
